Results published in patent US8551721B2, “Bioluminescent detection of cyanohydroxy benzothiazole compounds” (Promega Corporation, priority 2008, dated 2013).

Tests used:
Assay type in all cases: biochemical
UGT 1A8 = target: T1, UGT 1A8 (Homo sapiens, UniProt Q9HAW9); assay: UGT activity: utilization of substrate by recombinant UGT 1A8 Supersomes; settings: 2 hour incubation at 37° C., plus vs minus UDPGA, background corrected
T1 construct: purchased BD Gentest; host or cells: insect cells (microsomes)
T1 sequence (Q9HAW9 26-530): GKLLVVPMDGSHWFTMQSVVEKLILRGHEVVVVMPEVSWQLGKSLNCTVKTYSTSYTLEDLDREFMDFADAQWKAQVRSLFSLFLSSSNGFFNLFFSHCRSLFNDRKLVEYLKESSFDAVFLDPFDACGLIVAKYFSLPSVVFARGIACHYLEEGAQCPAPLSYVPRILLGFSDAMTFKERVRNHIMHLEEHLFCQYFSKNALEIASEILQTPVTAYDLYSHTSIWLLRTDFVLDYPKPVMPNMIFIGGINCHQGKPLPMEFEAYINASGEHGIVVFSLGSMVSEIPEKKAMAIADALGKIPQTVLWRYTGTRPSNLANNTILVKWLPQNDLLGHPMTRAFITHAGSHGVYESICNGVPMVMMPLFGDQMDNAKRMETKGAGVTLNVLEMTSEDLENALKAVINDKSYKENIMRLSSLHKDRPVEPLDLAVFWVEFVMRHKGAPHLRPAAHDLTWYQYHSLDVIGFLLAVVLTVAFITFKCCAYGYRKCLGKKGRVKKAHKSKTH
Description: (§1) The invention includes a method of determining activity of the uridine 5′-diphospho-glucuronosyltransferase (UDP-glucuronosyltransferase, or UGT) family enzymes in vitro. Briefly, UGT enzymes from overexpressed insect microsomes (Supersomes™, BD Gentest™) or animal tissue microsomes (Xenotech, BD Gentest™) were incubated with a cyanobenzothiazole substrate of the invention and the cofactor UDP-glucuronic acid (UDPGA) at 37° C. in buffer at physiological pH containing MgCl2 and alamethicin (typically, 50 mM TES, pH 7.5, 8 mM MgCl2, 4 mM UDPGA (Sigma) and 25 μg/mL alamethicin (Sigma)). Following the UGT enzyme reaction, an equal volume of P450-Glo Luciferin Detection Reagent (Promega) containing 15-30 mM D-cysteine-HCl.H2O (Sigma) was added and the plate was mixed and incubated at room temperature, typically for 20-30 minutes. […]
(§2) During this incubation, the cysteine reacts with the cyanobenzathiozole substrate to yield a D-luciferin derivative. […] Therefore, activity of the UGT enzyme can be measured by analyzing the difference (lower or no output) in relative light units (RLU) of a sample in which glucuronidation occurs compared to a sample that was run under the same conditions with no added UDPGA cofactor. […]
(§3) Reactions were assembled in a white 96-well plate. […] After the incubation was completed, the plate was read on a Veritas™ luminometer (Turner BioSystems, Inc.; Sunnyvale, Calif.). […]

UGT 1A3 = target: T2, UGT 1A3 (Homo sapiens, UniProt P35503); assay: UGT activity: utilization of substrate by recombinant UGT 1A3 Supersomes; settings: 2 hour incubation at 37° C., plus vs minus UDPGA
T2 construct: purchased BD Gentest; host or cells: insect cells (microsomes)
T2 sequence (P35503 29-534): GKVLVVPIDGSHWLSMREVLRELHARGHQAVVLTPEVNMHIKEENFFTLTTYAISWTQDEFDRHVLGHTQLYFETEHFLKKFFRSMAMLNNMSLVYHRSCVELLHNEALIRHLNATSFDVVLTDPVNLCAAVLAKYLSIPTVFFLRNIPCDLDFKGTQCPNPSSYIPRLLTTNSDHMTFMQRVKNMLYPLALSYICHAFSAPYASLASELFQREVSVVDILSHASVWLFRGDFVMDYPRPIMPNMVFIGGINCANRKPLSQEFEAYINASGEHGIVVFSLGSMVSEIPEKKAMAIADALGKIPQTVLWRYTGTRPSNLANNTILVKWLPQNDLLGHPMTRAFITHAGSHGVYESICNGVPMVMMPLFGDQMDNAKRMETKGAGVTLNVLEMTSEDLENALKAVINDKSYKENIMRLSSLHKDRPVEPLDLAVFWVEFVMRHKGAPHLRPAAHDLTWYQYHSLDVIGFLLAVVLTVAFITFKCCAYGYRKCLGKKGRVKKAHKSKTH
Description: as §1, §2, §3

UGT 2B4 = target: T3, UGT 2B4 (Homo sapiens, UniProt P06133); assay: UGT activity: utilization of substrate by recombinant UGT 2B4 Supersomes; settings: 2 hour incubation at 37° C., plus vs minus UDPGA
T3 construct: purchased BD Gentest; host or cells: insect cells (microsomes)
T3 sequence (P06133 24-528): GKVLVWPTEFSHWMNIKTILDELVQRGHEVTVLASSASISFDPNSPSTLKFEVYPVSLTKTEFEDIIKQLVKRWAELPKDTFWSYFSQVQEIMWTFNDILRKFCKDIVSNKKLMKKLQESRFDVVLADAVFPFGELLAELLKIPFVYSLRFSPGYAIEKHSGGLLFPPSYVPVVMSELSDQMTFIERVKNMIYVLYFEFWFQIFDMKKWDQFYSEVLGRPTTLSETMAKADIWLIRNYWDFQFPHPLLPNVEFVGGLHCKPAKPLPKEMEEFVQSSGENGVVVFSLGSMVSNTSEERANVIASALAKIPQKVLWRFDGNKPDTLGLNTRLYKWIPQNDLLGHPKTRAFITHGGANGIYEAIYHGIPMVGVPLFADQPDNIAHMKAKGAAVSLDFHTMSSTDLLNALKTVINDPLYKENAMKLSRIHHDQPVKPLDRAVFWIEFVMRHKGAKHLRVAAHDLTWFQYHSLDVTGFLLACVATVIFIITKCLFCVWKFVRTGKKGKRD
Description: as §1, §2, §3

Structure (SMILES) | % utilization by UGT 1A8 (UGT 1A8) | utilization by UGT 1A3 (in words) (UGT 1A3) | utilization by UGT 2B4 (in words) (UGT 2B4)
Cc1cc(O)cc2sc(C3=NC(C(=O)O)CS3)nc12 (stereo not drawn) [compound 3478] | ≤ 15% | only UGT 1A6 was able to utilize compound 3478 to any appreciable extent | did not utilize either compound 3138 or 3478 to an appreciable extent
Cc1cc(O)cc2sc(C#N)nc12 [compound 3138] | over 50% | detectable levels of utilization above background | did not utilize either compound 3138 or 3478 to an appreciable extent
